Experimental data from ChEMBL document CHEMBL1122446.

Columns and labels:
[1] = target: T1, Dihydrofolate reductase (Gallus gallus) (UniProt P00378)
T1 sequence (whole entry): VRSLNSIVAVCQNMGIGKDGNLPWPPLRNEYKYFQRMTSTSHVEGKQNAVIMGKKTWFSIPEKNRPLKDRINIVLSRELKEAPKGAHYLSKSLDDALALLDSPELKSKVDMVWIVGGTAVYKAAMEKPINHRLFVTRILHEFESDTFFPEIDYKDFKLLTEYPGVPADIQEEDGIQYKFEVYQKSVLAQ

[2] = target: Dihydrofolate reductase (Lactobacillus casei) (UniProt P00381); conditions: Lacticaseibacillus casei
[3] = target: T2, Dihydrofolate reductase (Homo sapiens) (UniProt P00374)
T2 sequence (whole entry): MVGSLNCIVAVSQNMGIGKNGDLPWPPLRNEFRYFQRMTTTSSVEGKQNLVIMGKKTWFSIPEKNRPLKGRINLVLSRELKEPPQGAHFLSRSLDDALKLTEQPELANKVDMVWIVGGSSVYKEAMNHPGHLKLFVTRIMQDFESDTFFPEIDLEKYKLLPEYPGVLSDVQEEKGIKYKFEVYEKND

Sequence of Dihydrofolate reductase (Lactobacillus casei) (P00381 whole entry): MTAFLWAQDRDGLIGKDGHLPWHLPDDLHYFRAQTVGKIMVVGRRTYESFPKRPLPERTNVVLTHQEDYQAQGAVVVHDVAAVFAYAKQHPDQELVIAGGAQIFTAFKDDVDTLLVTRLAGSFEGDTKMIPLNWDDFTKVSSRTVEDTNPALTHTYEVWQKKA

Row | I / E100 [1] | I / E100 [2] | I / E100 [3] | SMILES
1 | 3.5 | 1.9 | 2.9 | CN(C)c1cccc2c(S(=O)(=O)NCCCCC(NC(=O)c3ccc(N(C)Cc4cnc5nc(N)nc(N)c5n4)cc3)C(=O)O)cccc12 (stereo unspecified)
2 | 1.4 | 1 | 1 | CN(Cc1cnc2nc(N)nc(N)c2n1)c1ccc(C(=O)NC(CCCCN)C(=O)O)cc1 (stereo unspecified)
